# Counter-ions that a name gives are not always drawn. Like-named read-outs stand apart in the source and are kept apart here.
# Columns and labels:
# VEGF = VEGF ELISA Assay in HEK293 cells; format: cell-based; conditions: Homo sapiens
# Procedure: HEK293 cells are seeded in 96-well poly-lysine coated plates at 20,000 cells per well in DMEM (10% FBS, 1% NEAA, 0.1% glutamine). Following overnight incubation, the cells are washed with 100 μL of Opti-MEM (Gibco, Carlsbad, Calif.) to remove serum. Compound in DMSO is serially diluted (beginning with 100 μM) in Opti-MEM and added to the cells. The conditioned media is analyzed for VEGF with a Quantikine human VEGF immunoassay kit (R&D Systems, Minneapolis, Minn.). Optical density measurements at 450 nm are recorded using the Spectra Max 250 (Molecular Devices, Sunnyvale, Calif.). Data defined as % of DFO stimulation is used to calculate EC50 values with GraphPad Prism 4 software (San Diego, Calif.).
# Staphylococcus aureus = conditions: dose-dependent; cited from earlier work
# S. aureus = conditions: murine model of S. aureus skin infection; cited from earlier work
# [1] = Solubility of salts in distilled deionized water (HPLC); format: physicochemical
# Procedure: The formulator can determine the solubility of the pharmaceutically acceptable salts of the disclosed inhibitors by any method desirable. The following is a non-limiting example of a procedure for evaluating the solubility of a salt of a disclosed inhibitor. A suspension of tert-butyl-{[1-(4-chlorobenzyl)-3-hydroxy-2-oxo-1,2-dihydropyridin-4-yl]methyl}-piperazine-1-carboxylate methanesulfonate (26.6 mg) in distilled deionized water (3.0 mL) is sonicated for 20 min with water bath temperature under 25° C. The suspension is filtered to remove any insoluble salt. The clear filtrate solution (200 μL) is diluted with distilled deionized water (800 μL) and subjected to HPLC analysis. The following are results for the pharmaceutically acceptable salts outlined in Table VII above.
# [2] = system: phosphoglycerate kinase (PGK) expression; test: PGK expression in murine embryonic fibroblasts; format: cell-based; conditions: wild type murine embryonic fibroblasts, 1 μM and 10 μM (FIG. 12)
# Procedure: FIG. 11 depicts the up regulation of phosphoglycerate kinase (PGK) expression in wild type murine embryonic fibroblasts as a result of treatment with compound a compound disclosed in Table VIII at dosages of 1 μM (E), 10 μM (F), and 50 μM (G) vs. wild type control (H) and the lack of up regulation of PGK expression in HIF-1 knock out cells as a result of treatment with a compound disclosed in Table VIII at dosages of 1 μM (A), 10 μM (B), and 50 μM (C) and HIF-1 knock out control (D). Both cell types were treated for 7 hours.
# EPO = test: Mouse Serum EPO Assay; format: in vivo
# Procedure: All animal work is conducted in accordance with the Guide for the Care and Use of Laboratory Animals (National Academy of Sciences; Copyright © 1996). Used in these experiments were 9-10 week old male C57Bl/6 mice from Charles River Laboratory (Portage, Mich.). The mice are orally dosed with vehicle (aqueous carbonate buffer, 50 mM; pH 9.0) or with the compound to be tested in vehicle at 50 mg/kg or 100 mg/kg. The animals are dosed three times: day 1 at 8 AM and 5 PM, and on day 2 at 8 AM. One hour after the first dose, unilateral arterial ligation is performed under anesthesia using isoflurane. The femoral artery is ligated proximal to the origin of the popliteal artery. The contralateral limb undergoes a sham surgical procedure. Ligation is performed in an alternating fashion between right and left hindlimbs. Two hours after the 8 AM dosing on day 2, blood is obtained by ventricular stick while the mice are anesthetized with isoflurane. Serum samples for EPO analysis are obtained using gel clot serum separation tubes. Heart, liver, and gastrocnemius muscles are harvested, snap-frozen in liquid nitrogen, and stored in −80° C. until use.
# The mouse serum EPO is detected using Mouse Quantikine Erythropoietin ELISA kit from R&D Systems according to manufacturer's instructions.
# [3] = HEK293 cells, head prints IC50, method calculates EC50 from % of DFO stimulation, read-out: VEGF IC50
SMILES,IC50 (VEGF; [3]) [µM],further results
"O=c1c(O)c(CN2CCN(Cc3ccccc3)CC2)ccn1Cc1ccccc1 [Compound B9, 1-benzyl-3-hydroxy-4-[(4-benzyipiperazin-1-yl)methyl]pyridin-2(1H)-one]",12.6,
NC(Cn1ccc(=O)c(O)c1)C(=O)O (centres unmarked) [mimosine],,capacity of human phagocytes and whole blood to kill Staphylococcus aureus (Staphylococcus aureus): boost; lesion size (S. aureus): reduce the lesion size
"COC[C@H]1CCCN1Cc1ccn(Cc2ccccc2)c(=O)c1O [Compound B5, (R)-1-benzyl-3-hydroxy-4-{[2-(methoxymethyl)pyrrolidin-1-yl]methyl}pyridin-2(1H)-one]",53,
"CC(C)(C)OC(=O)N1CCN(Cc2ccn(Cc3ccc(Cl)cc3)c(=O)c2O)CC1 [p-toluenesulfonate, tert-butyl-{[1-(4-chlorobenzyl)-3-hydroxy-2-oxo-1,2-dihydropyridin-4-yl]methyl}-piperazine-1-carboxylate]",,Solubility [1]: 2300 µg/mL
"COc1ccccc1Cn1ccc(CN2CCCCCC2)c(O)c1=O [Compound A18, 1-(2-methoxybenzyl)-3-hydroxy-4-(azepan-1-ylmethyl)pyridin-2(1H)-one]",29.2,
"CC(C)(C)OC(=O)N1CCN(Cc2ccn(Cc3ccc(Cl)cc3)c(=O)c2O)CC1 [Compound A41, tert-butyl 4-{[1-(4-chlorobenzyl)-3-hydroxy-2-oxo-1,2-dihydropyridin-4-yl]methyl}piperazine-1-carboxylate]",,"Solubility ([1]; distilled deionized water, sonicated 20 min, under 25° C., listed as Free base): ~1 µg/mL; IC50 (VEGF; HEK293, read-out: VEGF IC50 (μM)): 16.6 µM"
"O=c1c(O)c(CN2CCN(c3ccc(Cl)nn3)CC2)ccn1Cc1ccccc1 [Compound B14, 1-benzyl-3-hydroxy-4-{[4-(6-chloropyridazin-3-yl)piperazin-1-yl]methyl}pyridin-2(1H)-one]",78,
"CC(C)(C)OC(=O)N1CCN(Cc2ccn(Cc3ccc(Cl)cc3)c(=O)c2O)CC1 [hydrochloride, tert-butyl-{[1-(4-chlorobenzyl)-3-hydroxy-2-oxo-1,2-dihydropyridin-4-yl]methyl}-piperazine-1-carboxylate]",,Solubility [1]: 5900 µg/mL

# More lines, main results first:
IC50 (VEGF; [3]) [µM],SMILES,further results
27.4,"CC1CCC(NCc2ccn(Cc3ccccc3)c(=O)c2O)CC1 (centres unmarked) [Compound C17, 1-benzyl-3-hydroxy-4-[(4-methylcyclohexylamino)methyl]pyridin-2(1H)-one]",
19,"Cc1ccc(S(=O)(=O)n2ccc(CN3CCN(c4ccc(Cl)nn4)CC3)c(O)c2=O)cc1 [Compound D14, 1-[(4-methylphenyl)sulfonyl]-3-hydroxy-4-{[4-(6-chloropyridazin-3-yl)piperazin-1-yl]methyl}pyridin-2(1H)-one]",
42,"O=c1c(O)c(CNCc2ccccc2)ccn1Cc1ccc(Cl)cc1 [Compound C1, 1-(4-chlorobenzyl)-3-hydroxy-4-[(4-benzylamino)methyl]pyridin-2(1H)-one]",
62.9,"O=C1NCCCCC1NCc1ccn(Cc2ccccc2)c(=O)c1O (centres unmarked) [Compound C19, 3-[(1-benzyl-3-hydroxy-2-oxo-1,2-dihydropyridin-4-yl)methylamino]azepan-2-one]",
7.4,"O=c1c(O)cccn1Cc1ccc(Cl)cc1 [Compound F3, 1-(4-chlorobenzyl)-3-hydroxypyridin-2(1H)-one]",
27,"Cc1ccc(S(=O)(=O)n2ccc(CN3CCC(N4CCCCC4)CC3)c(O)c2=O)cc1 [Compound D10, 1-[(4-methylphenyl)sulfonyl]-3-hydroxy-4-(1,4′-bipiperidin-1′-ylmethyl)pyridin-2(1H)-one]",
53,"CSCCNCc1ccn(Cc2ccccc2)c(=O)c1O [Compound C33, 1-benzyl-3-hydroxy-4-{[2-(methylthio)ethylamino]methyl}pyridin-2(1H)-one]",
> 100,"O=c1c(O)cccn1Cc1cccc(Cl)c1 [Compound F2, 1-(3-chlorobenzyl)-3-hydroxypyridin-2(1H)-one]",PGK expression [2]: up regulation; EC50 (EPO): 14 µM

# — US10562854B2, “Prolyl hydroxylase inhibitors” (Aerpio Therapeutics, Inc., priority 2009, dated 2020)
